Laboratory results taken from patent US20260184663A1, “INDENE COMPOUNDS, PHARMACEUTICAL COMPOSITIONS THEREOF, AND THEIR THERAPEUTIC APPLICATIONS” (NucMito Pharmaceuticals co. Ltd., priority 2022, published 2026).

Legend:
Format in all cases: cell-based
[1] = system: alpha-smooth muscle actin (α-SMA); experiment: Inhibition of TGF-β induced expression of alpha-smooth muscle actin (α-SMA) in CFSC cells (western blot); conditions: compound at 10 μM, TGF-β (10 ng/mL), 24 hours, band intensity vs TGF-β only
Summary of the method: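 CFSC hepatic stellate cells in serum-free DMEM treated 24 h at 37 °C with compound at 10 μM plus TGF-β (10 ng/mL). α-SMA measured by Western blot with β-actin, ECL detection, densitometry. Percent inhibition is decrease in band intensity versus TGF-β-only cells.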

[2] = system: MDA-MB-231 (breast cancer); experiment: Antiproliferative activity (CCK-8 cell viability), MDA-MB-231; conditions: Homo sapiens, 72 h, read-out: Antiproliferative activity in cancerous cells, MDA-MB-231 (inhibition of cell growth); for inhibition at 3.3 µM: Compound concentration: 3.3 μM; for inhibition at 10 µM: Compound concentration: 10 μM
Summary of the method: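 MDA-MB-231 breast cancer cells, grown in DMEM with 10% FBS, were plated in 96-well plates at 2,000-5,000 cells/well. Once attached, they were exposed to compound and incubated at 37° C. for 72 h. Viability was then measured with CCK-8 (10 μL per well, 4 h at 37° C.) by absorbance at 450 nm, relative to DMSO vehicle wells.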

[3] = system: HepG2 (liver cancer); experiment: Antiproliferative activity (CCK-8 cell viability), HepG2; conditions: Homo sapiens, 72 h; for inhibition at 3.3 µM: Compound concentration: 3.3 μM; for inhibition at 3.3 µM / inhibition at 10 µM: read-out: Antiproliferative activity in cancerous cells, HepG2 (inhibition of cell growth); for inhibition at 10 µM: Compound concentration: 10 μM
Summary of the method: (§1)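 Cells grown in DMEM (HepG2, SW480), MEM (HeLa) or F-12K (A549), each with 10% FBS, then exposed to compound at 3.3, 10 or 30 μM for 72 h at 37 °C. CCK-8 absorbance at 450 nm; viability expressed as percent of DMSO-treated cells, graded as growth inhibition bands.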

[4] = system: SW480 (colon cancer); experiment: Antiproliferative activity (CCK-8 cell viability), SW480; conditions: Homo sapiens, 72 h; for inhibition at 3.3 µM: Compound concentration: 3.3 μM; for inhibition at 3.3 µM / inhibition at 10 µM: read-out: Antiproliferative activity in cancerous cells, SW480 (inhibition of cell growth); for inhibition at 10 µM: Compound concentration: 10 μM
Summary of the method: as §1

[5] = system: B16F10 (malignant melanoma); experiment: Antiproliferative activity (CCK-8 cell viability), B16F10; conditions: Mus musculus, 72 h; for inhibition at 3.3 µM: B16-F10, Compound concentration: 3.3 μM; for inhibition at 3.3 µM / inhibition at 10 µM: read-out: Antiproliferative activity in cancerous cells, B16F10 (inhibition of cell growth); for inhibition at 10 µM: B16-F10, Compound concentration: 10 μM
Summary of the method: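 B16F10 melanoma cells grown in DMEM with 10% FBS were plated in 96-well plates at 2,000-5,000 cells/well. After attachment they were exposed to compound in medium for 72 h at 37° C. CCK-8 solution (10 μL) was then added, and after 4 h at 37° C absorbance was read at 450 nm.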

[6] = system: A431 (epidermoid carcinoma); experiment: Antiproliferative activity (CCK-8 cell viability), A431; conditions: Homo sapiens, 72 h; for inhibition at 3.3 µM: A-431, Compound concentration: 3.3 μM; for inhibition at 3.3 µM / inhibition at 10 µM: read-out: Antiproliferative activity in cancerous cells, A431 (inhibition of cell growth); for inhibition at 10 µM: A-431, Compound concentration: 10 μM
Summary of the method: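 A431 epidermoid carcinoma cells grown in DMEM with 10% FBS were plated at 2,000-5,000 cells/well in 96-well plates. After attachment they were exposed to compound at 3.3 μM, 10 μM, or 30 μM for 72 h at 37° C. Viability was then assessed by CCK-8 against DMSO vehicle-treated wells.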

[7] = system: A549 (lung adenocarcinoma); experiment: Antiproliferative activity (CCK-8 cell viability), A549; conditions: Homo sapiens, 72 h; for inhibition at 3.3 µM: Compound concentration: 3.3 μM; for inhibition at 3.3 µM / inhibition at 10 µM: read-out: Antiproliferative activity in cancerous cells, A549 (inhibition of cell growth); for inhibition at 10 µM: Compound concentration: 10 μM
Summary of the method: as §1

[8] = system: HeLa (cervical cancer); experiment: Antiproliferative activity (CCK-8 cell viability), HeLa; conditions: Homo sapiens, 72 h, read-out: Antiproliferative activity in cancerous cells, HELA (inhibition of cell growth); for inhibition at 3.3 µM: Compound concentration: 3.3 μM; for inhibition at 10 µM: Compound concentration: 10 μM
Summary of the method: as §1

SMILES | inhibition at 10 µM [1] [%] | inhibition at 3.3 µM [2] [%] | inhibition at 10 µM [2] [%] | inhibition at 3.3 µM [3] [%] | inhibition at 10 µM [3] [%] | inhibition at 3.3 µM [4] [%] | inhibition at 10 µM [4] [%] | inhibition at 3.3 µM [5] [%] | inhibition at 10 µM [5] [%] | inhibition at 3.3 µM [6] [%] | inhibition at 10 µM [6] [%] | inhibition at 3.3 µM [7] [%] | inhibition at 10 µM [7] [%] | inhibition at 3.3 µM [8] [%] | inhibition at 10 µM [8] [%] | inhibition at 30 µM ([3]; Compound concentration: 30 μM, read-out: Antiproliferative activity in cancerous cells, HepG2) [%] | inhibition at 30 µM ([4]; Compound concentration: 30 μM, read-out: Antiproliferative activity in cancerous cells, SW480) [%] | inhibition at 30 µM ([5]; B16-F10, Compound concentration: 30 μM, read-out: Antiproliferative activity in cancerous cells, B16F10) [%] | inhibition at 30 µM ([6]; A-431, Compound concentration: 30 μM, read-out: Antiproliferative activity in cancerous cells, A431) [%] | inhibition at 30 µM ([7]; Compound concentration: 30 μM, read-out: Antiproliferative activity in cancerous cells, A549) [%]
O=C(O)CC1=C(C2CCc3ccc(F)cc32)/C(=C/c2ccc(Oc3ccc(F)cc3)cc2)c2ccc(F)cc21 (centres unmarked) [C12, (Z)-2-(5′,6-Difluoro-1′-(4-(4-fluorophenoxy)benzylidene)-2,3-dihydro-1H,1′H-[1,2′-biinden]-3′-yl)acetic acid] | > 80 | ≥ 50 | ≥ 50 | ≥ 50 | ≥ 50 | ≥ 50 | ≥ 50 | ≥ 50 | ≥ 50 | ≥ 50 | ≥ 50 | ≥ 50 | ≥ 50 | ≥ 50 | ≥ 50 | – | – | – | – | –
O=C(O)CC1=C(Cc2ccc(C(F)(F)F)cc2)/C(=C/c2cccc(Oc3ccccc3)c2)c2ccc(F)cc21 [C13, (Z)-2-(5-Fluoro-1-(3-phenoxybenzylidene)-2-(4-(trifluoromethyl)benzyl)-1H-inden-3-yl)acetic acid] | > 80 | ≥ 50 | ≥ 50 | ≥ 50 | ≥ 50 | ≥ 50 | ≥ 50 | ≥ 50 | ≥ 50 | ≥ 50 | ≥ 50 | ≥ 50 | ≥ 50 | ≥ 50 | ≥ 50 | – | – | – | – | –
O=C(O)CC1=C(Cc2ccc(F)cc2)/C(=C/c2ccc(Oc3ccc(F)cc3)cc2)c2ccc(F)cc21 [C14, (Z)-2-(5-Fluoro-2-(4-fluorobenzyl)-1-(4-(4-fluorophenoxy)benzylidene)-1H-inden-3-yl)acetic acid] | > 80 | ≥ 50 | ≥ 50 | ≥ 50 | ≥ 50 | < 30 | ≥ 50 | ≥ 50 | ≥ 50 | ≥ 50 | ≥ 50 | < 30 | ≥ 50 | ≥ 50 | ≥ 50 | – | – | – | – | –
O=C(O)CC1=C/C(=C/c2cccc(Oc3ccccc3)c2)c2cc(OCC(F)(F)F)ccc21 [C15, (Z)-2-(1-(3-Phenoxybenzylidene)-6-(2,2,2-trifluoroethoxy)-1H-inden-3-yl)acetic acid] | < 30 | 30 to 50 | ≥ 50 | < 30 | < 30 | < 30 | < 30 | < 30 | < 30 | < 30 | < 30 | < 30 | < 30 | < 30 | 30 to 50 | 30 to 50 | < 30 | 30 to 50 | < 30 | < 30
CC1=C(CC(=O)O)c2ccc(F)cc2/C1=C\c1cccc(Oc2ccccc2)c1 [C16, (Z)-2-(6-Fluoro-2-methyl-1-(3-phenoxybenzylidene)-1H-inden-3-yl)acetic acid] | > 80 | ≥ 50 | 30 to 50 | ≥ 50 | ≥ 50 | < 30 | < 30 | < 30 | ≥ 50 | ≥ 50 | ≥ 50 | < 30 | 30 to 50 | < 30 | < 30 | – | – | – | – | –
CC1=C(CC(=O)O)c2cc(C)ccc2/C1=C\c1cccc(Oc2ccccc2)c1 [C17, (Z)-2-(2,5-Dimethyl-1-(3-phenoxybenzylidene)-1H-inden-3-yl)acetic acid] | > 80 | 30 to 50 | ≥ 50 | 30 to 50 | ≥ 50 | < 30 | < 30 | < 30 | < 30 | 30 to 50 | ≥ 50 | < 30 | ≥ 50 | < 30 | 30 to 50 | – | – | – | – | –
CCc1ccc2c(c1)C(CC(=O)O)=C(C)/C2=C/c1cccc(Oc2ccccc2)c1 [C18, (Z)-2-(5-Ethyl-2-methyl-1-(3-phenoxybenzylidene)-1H-inden-3-yl)acetic acid] | < 30 | 30 to 50 | ≥ 50 | 30 to 50 | ≥ 50 | ≥ 50 | ≥ 50 | ≥ 50 | ≥ 50 | ≥ 50 | ≥ 50 | 30 to 50 | ≥ 50 | < 30 | 30 to 50 | – | – | – | – | –
CCC1=C(CC(=O)O)c2cc(F)ccc2/C1=C\c1cccc(Oc2ccccc2)c1 [C19, (Z)-2-(2-Ethyl-5-fluoro-1-(3-phenoxybenzylidene)-1H-inden-3-yl)acetic acid] | > 80 | ≥ 50 | ≥ 50 | < 30 | 30 to 50 | < 30 | < 30 | < 30 | ≥ 50 | < 30 | ≥ 50 | 30 to 50 | ≥ 50 | 30 to 50 | ≥ 50 | – | – | – | – | –
O=C(O)CC1=C(CC2CCCC2)/C(=C/c2cccc(Oc3ccccc3)c2)c2ccc(F)cc21 [C20, (Z)-2-(2-(Cyclopentylmethyl)-5-fluoro-1-(3-phenoxybenzylidene)-1H-inden-3-yl)acetic acid] | > 80 | 30 to 50 | ≥ 50 | < 30 | < 30 | ≥ 50 | ≥ 50 | ≥ 50 | ≥ 50 | ≥ 50 | ≥ 50 | 30 to 50 | ≥ 50 | 30 to 50 | ≥ 50 | – | – | – | – | –
